# Patent publication US20040023994A1 (priority 2002, published 2004)
# Marks after values point to notes of the source that are not given here.
# Key:
# A-498 cells = experiment: MTT cytotoxicity assay; assay type: cell-based, human; details: Homo sapiens, A498; A-498, 72 h incubation, MTT
# Method: (§1) Preliminary studies examining the in vitro cytotoxicity of cis-AVTP and trans-AVTG as compared to the parent drugs, were carried out using the 3-[4,5-dimethylthiazol-2-yl]-2,5-diphenyl tetrazolium bromide (MTT) cytotoxicity assay.
# ACHN cells = experiment: MTT cytotoxicity assay; assay type: cell-based, human; details: Homo sapiens, 72 h incubation, MTT
# Method: as §1
# [1] = tested on: all the cell lines included in the screen; experiment: cells
# Method: cis-AVTP and trans-AVTG were tested in National Cancer Institute's (NCI) 60 cell lines derived from leukemia, melanoma, lung, kidney cancers. Most chemotherapeutic agents currently nd 6-TG, have been tested in this screen and a database he National Institutes of Health. The NCI assigned s-AVTP, and number NSC-722289 to trans-AVTG. tocol used for the cytotoxicity assessment in the NCI e from the National Institutes of Health. Briefly, tumor ma, lung, colon, brain, ovary, breast, prostate, and um containing 5% fetal bovine serum and 2 mM L-glutamine re plated in a 100 μL volume into 96 well microtiter 37° C. in humidified atmosphere supplemented with 5% ach cell line were fixed with trichloroacetic acid for f drug addition (Tz). The drugs, as 400-fold concentrated uted to twice the final maximum test concentration with entamicin. Additional four 10-fold dilutions were made us control. Aliquots (100 μl) of the drug solutions were 100 μl of medium, resulting in the required final drug the plates were incubated at 37° C. in humidified for additional 48 h. The assay was terminated by the w/v) trichloroacetic acid for adherent and suspension minutes at 4° C. The supernatant was discarded, the and air dried. A 100 μl aliquot of 0.4% (w/v) sulforhodamine B (SRB) solution in 1% acetic acid was added to each well, and the plates incubated for 10 minutes at room temperature. After staining, unbound dye was removed by washing five times with 1% acetic acid and the plates air dried. Bound stain was solubilized with 10 mM trizma base, and the absorbance read on a plate reader at a wavelength of 515 nm.
# By using time zero (Tz), control growth (C), and test growth in the presence of drug at the five concentration levels (Ti), the percentage growth was calculated at each of the drug concentration levels. Percentage growth inhibition was calculated as:
# [(Ti−Tz)/(C−Tz)]×100 for concentrations for which Ti>/=Tz
# [(Ti−Tz)/Tz]×100 for concentrations for which Ti<Tz.
# Three dose response parameters were calculated for each experimental agent. […] The TGI, the drug concentration resulting in total growth inhibition was calculated from Ti=Tz. The LC50 (the concentration of drug resulting in a 50% reduction in the measured protein at the end of the drug treatment as compared to that at the beginning) indicating a net loss of cells following treatment was calculated from [(Ti−Tz)/Tz]×100=−50. Values were calculated for each of these three parameters if the level of activity is reached; however, if the effect was not reached or was exceeded, the value for that parameter is expressed as greater or less than the maximum or minimum concentration tested.
# Breast cell lines [2] = tested on: Breast cell lines
# Prostate cell lines [3] = tested on: Prostate cell lines
# Colon cell lines [4] = tested on: Colon cell lines
# Renal cell lines [5] = tested on: Renal cell lines
# Melanoma cell lines [6] = tested on: Melanoma cell lines
# NSCL cell lines [7] = tested on: NSCL cell lines
# CNS cell lines [8] = tested on: CNS cell lines
# Leukemia cell lines [9] = details: Leukemia
# IGR-OV1 = details: IGR-OV1, Ovarian, NCI database, cited from earlier work
# OVCAR-8 = details: OVCAR-8, Ovarian, NCI database, cited from earlier work
# TK-10 = details: TK-10, Renal, NCI database, cited from earlier work
# HOP-92 = details: HOP-92, Non-Small Cell Lung, NCI database, cited from earlier work
# Breast cell lines [10] = experiment: cells
# Prostate cell lines [11] = experiment: cells
# Colon cell lines [12] = experiment: cells
# Renal cell lines [13] = experiment: cells
# Melanoma cell lines [14] = experiment: cells
# NSCL cell lines [15] = experiment: cells
# CNS cell lines [16] = experiment: cells; details: Homo sapiens
# Leukemia cell lines [17] = experiment: cells
# Ovarian cell lines = experiment: NCI anticancer screen, by tissue type
# [18] = read-out: LC50 (the source's name)
smiles,measurement,setting,value
"Nc1nc2nc[nH]c2c(=S)[nH]1 [6-TG, 6-thioguanine]",IC50,A-498 cells,6.9 ± 4.1 µM
same,IC50,ACHN cells,2.5 ± 0.8 µM
same,median TGI,[1]; all cell lines of the NCI screen,41.3 µM
same,GI50,[1]; read-out: median GI50,1.04 µM
same,CC50,[1]; read-out: median LC50,> 100 µM
same,median TGI,Breast cell lines [2],67.8^# μM
same,median TGI,Prostate cell lines [3],>100 µM
same,median TGI,Colon cell lines [4],41.2 µM
same,median TGI,Renal cell lines [5],89.2^# μM
same,median TGI,Melanoma cell lines [6],15.3 µM
same,median TGI,NSCL cell lines [7],24.0 µM
same,median TGI,CNS cell lines [8],>100 µM
same,median TGI,Leukemia cell lines [9],19.4 µM
same,GI50,IGR-OV1,4.79 µM
same,TGI,IGR-OV1,>100 µM
same,CC50,IGR-OV1; [18],> 100 µM
same,GI50,OVCAR-8,0.69 µM
same,TGI,OVCAR-8,60.0 µM
same,CC50,OVCAR-8; [18],> 100 µM
same,GI50,TK-10,1.04 µM
same,TGI,TK-10,78.3 µM
same,CC50,TK-10; [18],> 100 µM
same,GI50,HOP-92,0.73 µM
same,TGI,HOP-92,24.0 µM
same,CC50,HOP-92; [18],> 100 µM
same,GI50,Breast cell lines [10]; read-out: median GI50,1.48 µM
same,CC50,Breast cell lines [10]; read-out: median LC50,> 100 µM
same,GI50,Prostate cell lines [11]; read-out: median GI50,1.27 µM
same,CC50,Prostate cell lines [11]; read-out: median LC50,> 100 µM
same,GI50,Colon cell lines [12]; read-out: median GI50,1.32 µM
same,CC50,Colon cell lines [12]; read-out: median LC50,> 100 µM
same,GI50,Renal cell lines [13]; read-out: median GI50,1.14 µM
same,CC50,Renal cell lines [13]; read-out: median LC50,> 100 µM
same,GI50,Melanoma cell lines [14]; read-out: median GI50,1.13 µM
same,CC50,Melanoma cell lines [14]; read-out: median LC50,> 100 µM
same,GI50,NSCL cell lines [15]; read-out: median GI50,0.91 µM
same,CC50,NSCL cell lines [15]; read-out: median LC50,> 100 µM
same,GI50,CNS cell lines [16]; read-out: median GI50,1.28 µM
same,CC50,CNS cell lines [16]; read-out: median LC50,> 100 µM
same,GI50,Leukemia cell lines [17]; read-out: median GI50,0.33 µM
same,CC50,Leukemia cell lines [17]; read-out: median LC50,> 100 µM
same,median TGI,Ovarian cell lines; Ovarian,53.8 µM
same,GI50,Ovarian cell lines; read-out: median GI50,0.7 µM
same,CC50,Ovarian cell lines; read-out: median LC50,> 100 µM
